In patent US6897306B2, “3-heterocyclylpropanohydroxamic acids” (Pfizer Products, Inc., priority 1999, dated 2005):

Tests used:
[1] = tested on: keratinocyte migration (MMP-1 dependent); settings: collagen type I matrix in vitro; cited from earlier work

| melting point | SMILES | inhibition of keratinocyte migration [1] |
| --- | --- | --- |
| 128 to 130 °C | O=C(C[C@@H](CCCC1CCCCC1)c1nc(C(=O)NCc2ccccn2)no1)NO [Example 10, 5-{(1R)-4-Cyclohexyl-1-[2-(hydroxyamino)-2-oxoethyl]butyl}-N-(2-pyridinylmethyl) -1,2,4-oxadiazole-3-carboxamide] | – |
| – | CNC(=O)[C@H](Cc1ccc(OC)cc1)NC(=O)[C@@H](CC(=O)NO)CC(C)C [SC44463] | completely inhibited |
